Where a SMILES comes first, the peptide text is derived from it. [ ]: non-standard residue; d: D form. The star is where a group is joined. NHCH2CH2OH = OCCN*; For = O=C*
Columns and labels:
[1] = system: P388 mouse leukemia cells; conditions: 92 h
Outline: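 P388 cells at 1 × 10^4 cells/mL (final) were exposed to library peptides (stocks diluted 250-fold in RPMI1640/10% FBS) for 92 h at 37 °C, 5% CO2. Viable cells were counted by WST-1/1-methoxy PMS (4 h), absorbance 415 nm, and expressed as cell viability (%).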

[2] = system: Streptococcus pyogenes SSI-9; experiment: Antibacterial activity assay of bead-derived peptides (three concentrations); format: cell-based; set-up: key: +++: inhibition by the 640-fold diluted peptide solution; ++: inhibition by the 160-fold diluted solution; +: inhibition by the 40-fold diluted solution; -: no inhibition; conditions: S. pyogenes, bead-derived peptide solution, three concentrations
Outline: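 Undiluted, 4-fold and 16-fold DMSO-diluted peptide stocks; S. pyogenes SSI-9, 2 × 10^5 CFU, cation-adjusted MHB (50 mg/L Ca2+, 25 mg/L Mg2+) + 5% laked horse blood; 37 °C, 18 h; readout = cell pellet visible or not.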

[3] = H+/Na+ transport assay of bead-derived peptides (one-point); format: biochemical; set-up: key: relative activity; mean of two control wells = 1.00; conditions: bead-derived peptide solution, EYPC/EYPG LUVs;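 also: relative to parent gramicidin A activity set to 1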
Outline: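 Values are normalized fluorescence, with Triton X-100 defining 100% and untreated LUVs 0%, and the two control wells averaging 1.00. Vesicles carried 1.0 mM pyranine and included egg yolk phosphatidylglycerol. Peptides were incubated with them 30 min at room temperature.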

Row | Structure (SMILES) | cell viability/% [1] | antibacterial activity [2] | H+/Na+ transport activity normalized against the value of 1 (1.00) [3]
1 | CNC(=O)C[C@@H](NC(=O)[C@@H](NC(=O)[C@H](NC(=O)[C@H](C)NC(=O)[C@H](NC(=O)[C@H](C)NC(=O)CNC(=O)[C@@H](NC=O)C(C)C)C(C)C)C(C)C)C(C)C)C(=O)N[C@@H](Cc1c[nH]c2ccccc12)C(=O)N[C@H](CC(C)C)C(=O)N[C@@H](Cc1c[nH]c2ccccc12)C(=O)N[C@H](CC(C)C)C(=O)N[C@@H](Cc1c[nH]c2ccccc12)C(=O)N[C@H](CC(C)C)C(=O)N[C@@H](Cc1c[nH]c2ccccc12)C(=O)NCCO [compound 2218] (For-VGA[dV]A[dV]V[dD](NHMe)W[dL]W[dL]W[dL]W-NHCH2CH2OH) | 100.0% | - | 1.32
2 | CC(C)C[C@@H](NC(=O)[C@H](C)NC(=O)CNC(=O)[C@@H](NC=O)C(C)C)C(=O)N[C@@H](C)C(=O)N[C@@H](C(=O)N[C@H](C(=O)N[C@@H](C(=O)N[C@@H](Cc1c[nH]c2ccccc12)C(=O)N[C@@H](C(=O)N[C@@H](Cc1c[nH]c2ccccc12)C(=O)N[C@H](CC(C)C)C(=O)N[C@@H](Cc1c[nH]c2ccccc12)C(=O)N[C@H](CC(C)C)C(=O)N[C@@H](Cc1c[nH]c2ccccc12)C(=O)NCCO)C(C)C)C(C)C)C(C)C)C(C)C [compound 2082] (For-VGA[dL]A[dV]V[dV]W[dV]W[dL]W[dL]W-NHCH2CH2OH) | 100.0% | + | 1.16
3 | CNC(=O)C[C@@H](NC(=O)[C@@H](NC(=O)[C@@H](CC(C)C)NC(=O)[C@H](C)NC(=O)[C@@H](CC(C)C)NC(=O)[C@H](C)NC(=O)CNC(=O)[C@@H](NC=O)C(C)C)C(C)C)C(=O)N[C@@H](Cc1c[nH]c2ccccc12)C(=O)N[C@H](CC(C)C)C(=O)N[C@@H](Cc1c[nH]c2ccccc12)C(=O)N[C@H](CC(C)C)C(=O)N[C@@H](Cc1c[nH]c2ccccc12)C(=O)N[C@H](CC(C)C)C(=O)N[C@@H](Cc1c[nH]c2ccccc12)C(=O)NCCO [compound 1400] (For-VGA[dL]A[dL]V[dD](NHMe)W[dL]W[dL]W[dL]W-NHCH2CH2OH) | 72.7% | - | 1.10
4 | CNC(=O)C[C@@H](NC(=O)[C@H](C)NC(=O)[C@@H](CC(C)C)NC(=O)[C@H](C)NC(=O)CNC(=O)[C@@H](NC=O)C(C)C)C(=O)N[C@H](C(=O)N[C@@H](C(=O)N[C@@H](Cc1c[nH]c2ccccc12)C(=O)N[C@H](CC(C)C)C(=O)N[C@@H](Cc1c[nH]c2ccccc12)C(=O)N[C@@H](C(=O)N[C@@H](Cc1c[nH]c2ccccc12)C(=O)N[C@H](CC(C)C)C(=O)N[C@@H](Cc1c[nH]c2ccccc12)C(=O)NCCO)C(C)C)C(C)C)C(C)C [compound 8535] (For-VGA[dL]A[dD](NHMe)V[dV]W[dL]W[dV]W[dL]W-NHCH2CH2OH) | 71.4% | - | 1.28
5 | CNC(=O)C[C@@H](NC(=O)[C@H](Cc1c[nH]c2ccccc12)NC(=O)[C@H](NC(=O)[C@H](Cc1c[nH]c2ccccc12)NC(=O)[C@H](NC(=O)[C@H](Cc1c[nH]c2ccccc12)NC(=O)[C@H](NC(=O)[C@@H](NC(=O)[C@@H](CC(C)C)NC(=O)[C@H](C)NC(=O)[C@H](NC(=O)[C@H](C)NC(=O)CNC(=O)[C@@H](NC=O)C(C)C)C(C)C)C(C)C)C(C)C)C(C)C)C(C)C)C(=O)N[C@@H](Cc1c[nH]c2ccccc12)C(=O)NCCO [compound 7479] (For-VGA[dV]A[dL]V[dV]W[dV]W[dV]W[dD](NHMe)W-NHCH2CH2OH) | 100.0% | - | 1.00
6 | CNC(=O)C[C@@H](NC(=O)[C@H](Cc1c[nH]c2ccccc12)NC(=O)[C@@H](CC(C)C)NC(=O)[C@H](Cc1c[nH]c2ccccc12)NC(=O)[C@H](NC(=O)[C@H](Cc1c[nH]c2ccccc12)NC(=O)[C@@H](CC(C)C)NC(=O)[C@@H](NC(=O)[C@H](NC(=O)[C@H](C)NC(=O)[C@@H](CC(C)C)NC(=O)[C@H](C)NC(=O)CNC(=O)[C@@H](NC=O)C(C)C)C(C)C)C(C)C)C(C)C)C(=O)N[C@@H](Cc1c[nH]c2ccccc12)C(=O)NCCO [compound 5302] (For-VGA[dL]A[dV]V[dL]W[dV]W[dL]W[dD](NHMe)W-NHCH2CH2OH) | 100.0% | - | 1.37
7 | CNC(=O)C[C@@H](NC(=O)[C@@H](NC(=O)[C@@H](CC(C)C)NC(=O)[C@H](C)NC(=O)[C@@H](CC(C)C)NC(=O)[C@H](C)NC(=O)CNC(=O)[C@@H](NC=O)C(C)C)C(C)C)C(=O)N[C@@H](Cc1c[nH]c2ccccc12)C(=O)N[C@H](CC(C)C)C(=O)N[C@@H](Cc1c[nH]c2ccccc12)C(=O)N[C@@H](C(=O)N[C@@H](Cc1c[nH]c2ccccc12)C(=O)N[C@H](CC(C)C)C(=O)N[C@@H](Cc1c[nH]c2ccccc12)C(=O)NCCO)C(C)C [compound 2953] (For-VGA[dL]A[dL]V[dD](NHMe)W[dL]W[dV]W[dL]W-NHCH2CH2OH) | 100.0% | - | 1.20
8 | CC(C)C[C@@H](NC(=O)[C@H](Cc1c[nH]c2ccccc12)NC(=O)[C@H](NC(=O)[C@H](Cc1c[nH]c2ccccc12)NC(=O)[C@H](NC(=O)[C@H](Cc1c[nH]c2ccccc12)NC(=O)[C@@H](CC(C)C)NC(=O)[C@@H](NC(=O)[C@H](NC(=O)[C@H](C)NC(=O)[C@H](NC(=O)[C@H](C)NC(=O)CNC(=O)[C@@H](NC=O)C(C)C)C(C)C)C(C)C)C(C)C)C(C)C)[C@H](C)O)C(=O)N[C@@H](Cc1c[nH]c2ccccc12)C(=O)NCCO [compound 2580] (For-VGA[dV]A[dV]V[dL]W[dV]W[dT]W[dL]W-NHCH2CH2OH) | 100.0% | - | 1.00
9 | CNC(=O)C[C@@H](NC(=O)[C@@H](NC(=O)[C@@H](CC(C)C)NC(=O)[C@H](C)NC(=O)[C@@H](CC(C)C)NC(=O)[C@H](C)NC(=O)CNC(=O)[C@@H](NC=O)C(C)C)C(C)C)C(=O)N[C@@H](Cc1c[nH]c2ccccc12)C(=O)N[C@@H](C(=O)N[C@@H](Cc1c[nH]c2ccccc12)C(=O)N[C@@H](C(=O)N[C@@H](Cc1c[nH]c2ccccc12)C(=O)N[C@H](CC(C)C)C(=O)N[C@@H](Cc1c[nH]c2ccccc12)C(=O)NCCO)C(C)C)C(C)C [compound 12307] (For-VGA[dL]A[dL]V[dD](NHMe)W[dV]W[dV]W[dL]W-NHCH2CH2OH) | 100.0% | - | 1.32
10 | CC(C)C[C@@H](NC(=O)[C@H](Cc1c[nH]c2ccccc12)NC(=O)[C@H](NC(=O)[C@H](Cc1c[nH]c2ccccc12)NC(=O)[C@H](NC(=O)[C@H](Cc1c[nH]c2ccccc12)NC(=O)[C@@H](CC(C)C)NC(=O)[C@@H](NC(=O)[C@H](NC(=O)[C@H](C)NC(=O)[C@H](NC(=O)[C@H](C)NC(=O)CNC(=O)[C@@H](NC=O)C(C)C)C(C)C)C(C)C)C(C)C)C(C)C)[C@H](C)O)C(=O)N[C@@H](Cc1c[nH]c2ccccc12)C(=O)NCCO [compound 8633] (For-VGA[dV]A[dV]V[dL]W[dV]W[dT]W[dL]W-NHCH2CH2OH) | 61.8% | - | 1.00
11 | CC(C)C[C@@H](NC(=O)[C@H](C)NC(=O)[C@H](NC(=O)[C@H](C)NC(=O)CNC(=O)[C@@H](NC=O)C(C)C)C(C)C)C(=O)N[C@H](C(=O)N[C@@H](C(=O)N[C@@H](Cc1c[nH]c2ccccc12)C(=O)N[C@@H](C(=O)N[C@@H](Cc1c[nH]c2ccccc12)C(=O)N[C@H](CC(C)C)C(=O)N[C@@H](Cc1c[nH]c2ccccc12)C(=O)N[C@H](CC(C)C)C(=O)N[C@@H](Cc1c[nH]c2ccccc12)C(=O)NCCO)[C@H](C)O)[C@H](C)O)C(C)C [compound 10517] (For-VGA[dV]A[dL]V[dT]W[dT]W[dL]W[dL]W-NHCH2CH2OH) | 100.0% | - | 1.05
12 | CC(C)C[C@@H](NC(=O)[C@H](Cc1c[nH]c2ccccc12)NC(=O)[C@@H](CC(C)C)NC(=O)[C@@H](NC(=O)[C@H](NC(=O)[C@H](C)NC(=O)[C@H](NC(=O)[C@H](C)NC(=O)CNC(=O)[C@@H](NC=O)C(C)C)C(C)C)C(C)C)C(C)C)C(=O)N[C@@H](Cc1c[nH]c2ccccc12)C(=O)N[C@@H](C(=O)N[C@@H](Cc1c[nH]c2ccccc12)C(=O)N[C@@H](C(=O)N[C@@H](Cc1c[nH]c2ccccc12)C(=O)NCCO)C(C)C)C(C)C [compound 8969] (For-VGA[dV]A[dV]V[dL]W[dL]W[dV]W[dV]W-NHCH2CH2OH) | 8.7% | - | 1.09
13 | CC(C)C[C@@H](NC(=O)[C@H](C)NC(=O)CNC(=O)[C@@H](NC=O)C(C)C)C(=O)N[C@@H](C)C(=O)N[C@H](CC(C)C)C(=O)N[C@H](C(=O)N[C@@H](C(=O)N[C@@H](Cc1c[nH]c2ccccc12)C(=O)N[C@@H](C(=O)N[C@@H](Cc1c[nH]c2ccccc12)C(=O)N[C@@H](C(=O)N[C@@H](Cc1c[nH]c2ccccc12)C(=O)N[C@H](CC(C)C)C(=O)N[C@@H](Cc1c[nH]c2ccccc12)C(=O)NCCO)C(C)C)[C@H](C)O)C(C)C)C(C)C [compound 6950] (For-VGA[dL]A[dL]V[dV]W[dT]W[dV]W[dL]W-NHCH2CH2OH) | 100.0% | - | 1.06

Source: publication PMC7531004, “Discovery of gramicidin A analogues with altered activities by multidimensional screening of a one-bead-one-compound library” (Nature Communications, 2020)
